The values below come from US8153645B2, “Treating pain using selective antagonists of persistent sodium current” (Allergan, Inc., priority 2003, dated 2012).

The target in experiment [1] is T1, Nav1.3 sodium channel (Homo sapiens, UniProt Q9NY46). Put plainly: High-throughput persistent sodium current assay (VIPR, FRET dyes): Na+-dependent depolarization of HEK-Nav1.3 cells. The class given is cell-based. The settings on record: 10 μM tetracaine, HEK-Nav1.3, FIG. 2. Also noted: expressed in transfected cells; host or cells: HEK-293 (human embryonic kidney) cells, G418-selected (HEK-Nav1.3).
T1 sequence (Q9NY46 whole entry): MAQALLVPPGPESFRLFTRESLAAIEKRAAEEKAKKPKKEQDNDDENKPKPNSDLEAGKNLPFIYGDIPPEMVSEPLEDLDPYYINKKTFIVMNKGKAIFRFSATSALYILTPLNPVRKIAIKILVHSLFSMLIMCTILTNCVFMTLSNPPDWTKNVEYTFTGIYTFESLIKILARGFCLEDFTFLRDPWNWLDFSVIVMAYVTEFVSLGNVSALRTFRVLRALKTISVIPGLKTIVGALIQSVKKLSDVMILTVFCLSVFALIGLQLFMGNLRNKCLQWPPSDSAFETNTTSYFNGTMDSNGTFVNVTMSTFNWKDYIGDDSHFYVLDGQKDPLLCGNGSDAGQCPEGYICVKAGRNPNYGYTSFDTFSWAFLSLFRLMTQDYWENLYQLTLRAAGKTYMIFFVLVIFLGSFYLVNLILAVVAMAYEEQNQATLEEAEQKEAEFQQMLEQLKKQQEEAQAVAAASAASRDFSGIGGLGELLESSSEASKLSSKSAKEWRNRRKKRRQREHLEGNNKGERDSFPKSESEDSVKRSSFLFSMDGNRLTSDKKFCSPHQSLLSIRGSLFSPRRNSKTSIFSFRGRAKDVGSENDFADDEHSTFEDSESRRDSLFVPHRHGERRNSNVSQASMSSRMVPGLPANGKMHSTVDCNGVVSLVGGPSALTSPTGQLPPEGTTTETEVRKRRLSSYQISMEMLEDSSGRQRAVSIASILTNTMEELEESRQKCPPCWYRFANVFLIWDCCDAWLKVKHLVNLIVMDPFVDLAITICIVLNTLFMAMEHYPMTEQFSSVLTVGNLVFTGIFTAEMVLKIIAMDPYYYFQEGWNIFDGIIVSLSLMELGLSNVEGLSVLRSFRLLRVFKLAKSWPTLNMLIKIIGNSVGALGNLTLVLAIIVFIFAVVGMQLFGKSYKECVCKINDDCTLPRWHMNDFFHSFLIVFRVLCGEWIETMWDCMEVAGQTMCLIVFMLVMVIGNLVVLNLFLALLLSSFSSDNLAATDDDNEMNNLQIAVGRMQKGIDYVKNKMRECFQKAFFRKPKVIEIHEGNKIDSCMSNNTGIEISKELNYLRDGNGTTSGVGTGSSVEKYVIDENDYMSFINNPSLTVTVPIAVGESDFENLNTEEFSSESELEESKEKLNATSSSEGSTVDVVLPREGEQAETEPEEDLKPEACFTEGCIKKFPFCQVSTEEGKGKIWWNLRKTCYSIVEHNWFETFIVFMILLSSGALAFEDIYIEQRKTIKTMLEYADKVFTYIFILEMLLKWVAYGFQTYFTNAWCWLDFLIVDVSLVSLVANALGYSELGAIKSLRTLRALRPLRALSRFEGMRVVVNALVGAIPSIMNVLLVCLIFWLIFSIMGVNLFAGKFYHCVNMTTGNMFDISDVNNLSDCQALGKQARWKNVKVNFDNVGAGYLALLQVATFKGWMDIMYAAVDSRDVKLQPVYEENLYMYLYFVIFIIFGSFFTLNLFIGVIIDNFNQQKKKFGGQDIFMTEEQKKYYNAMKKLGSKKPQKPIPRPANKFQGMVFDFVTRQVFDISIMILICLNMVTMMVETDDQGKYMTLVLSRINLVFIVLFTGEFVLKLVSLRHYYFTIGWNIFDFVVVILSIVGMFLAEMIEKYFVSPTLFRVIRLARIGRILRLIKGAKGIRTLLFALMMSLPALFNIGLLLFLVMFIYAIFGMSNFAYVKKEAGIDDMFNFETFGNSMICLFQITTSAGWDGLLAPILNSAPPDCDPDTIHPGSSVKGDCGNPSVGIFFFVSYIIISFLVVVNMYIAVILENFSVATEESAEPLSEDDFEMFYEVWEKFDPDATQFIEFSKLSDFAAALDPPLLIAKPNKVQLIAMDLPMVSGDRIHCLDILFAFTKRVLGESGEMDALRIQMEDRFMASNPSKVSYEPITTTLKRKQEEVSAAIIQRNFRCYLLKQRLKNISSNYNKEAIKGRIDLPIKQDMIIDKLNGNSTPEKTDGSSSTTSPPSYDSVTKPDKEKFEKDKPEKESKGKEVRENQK

Experiment [2] concerns the target T1, Nav1.3 sodium channel.
Experiment [3] relates to tactile allodynia. Kind of experiment: Spinal nerve ligation (Chung) model of neuropathic pain, tactile allodynia by von Frey hairs. The settings on record: rat, 10 mg/kg i.p., 30 minutes after dosing, FIG. 6. The class given is in vivo. As to the method:
Paw withdrawal threshold (gram force) was determined using von Frey filament stimulation and the Dixon's up-down method. Allodynic response was measured at baseline (0 min) and at 15, 30, 60 and 120 min after of 10 mg/kg IP injection of Compound 1 or vehicle control. Percent reversal of allodynia compared with non-injected rats was calculated. Six rats were used at each dose. Data were analyzed by analysis of variance and Dunnett's test reversal of allodynia was considered significant if P<0.05
Compound 1 was tested in a rodent model of neuropathic pain known to be predictive of clinical activity, see, e.g., Kim & Chung, supra, (1992). Following ligation of two spinal nerves, the animals developed sensitivity to normally non-painful stimuli such as touch. The ability of Compound 1 to reverse this sensitivity, called allodynia, was tested 30 minutes after dosing by intraperitoneal administration.
The animal model used involved the surgical ligation of the L5 (and optionally the L6) spinal nerves on one side in experimental animals. […]
Tactile allodynia was measured prior to and 30 minutes after drug administration using von Frey hairs, which are a series of fine hairs with incremental differences in stiffness. […] The applied force has been calculated to range from 0.41 to 15.1 grams. […]

Where [4] appears, read: 3 μM, 200 msec pulse to 0 mV from -90 mV, FIG. 4.

Turning to `CCCCNc1ccc(C(=O)OCCN(C)C)cc1` [Tetracaine, tetracaine], the “Inhibition of Na+-dependent change in Rf/Ri (depolarization)” value in experiment [1] is reported as “inhibited”.

On to `O=C(NCCCCc1ccccc1)c1cccs1` [Compound 1, thiophene-2-carboxylic acid (4-phenyl-butyl)-amide], for which, in experiment [2] (setting [4]), the “Block of persistent current” value is recorded as 99% and the “Reduction of transient current” value is 16%. Further, in experiment [2] (Hill equation fit, FIG. 5), the “Hillslope, persistent current (Ip)” value is 0.733 and the “Hillslope, transient Na+ current (It)” value was determined as 0.354. The “Reduction in allodynia with respect to a vehicle control” value in experiment [3] came to 80%.
